Peptide text beside a SMILES is read from it. * marks the point of attachment. Myristoyl = CCCCCCCCCCCCCC(=O)*
Legend:
[1] = tested on: NO production; experiment: NO production in db/db mouse wounds (nitrite measurement); assay type: in vivo, db/db mice; settings: day 12, nitrite measurement
Experimental: Nitrite Measurement with Griess Reagent. Supernatants from confluent endothelial cells on 10-cm dishes with and without stimulation at 37° C. were analyzed for nitrite level using a Griess Reagent kit according to the manufacturer's instructions. Nitrite levels were normalized to eNOS expression level in the cells, as described in the art (Chen, et al. (2020) FASEB J. 34(4):5838-5850).
(§1) Two 8 mm full thickness excisional wounds were made on the dorsal skin of diabetic db/db mice and then 50 μl of 50 μM Myr-CBD7 peptide was topically applied. […] Reduced CCR10-eNOS interaction was also observed in the mouse wounds following treatment with Myr-CBD7 peptide as determined by Co-IP (FIG. 6).

[2] = tested on: CD31; experiment: Microvessel density (CD31 staining) in db/db mouse wounds; assay type: in vivo, db/db mice; settings: day 12
Excerpt: CD31 Staining in Mouse Wound Tissue. Formalin-fixed mouse skin samples were processed on ASP300 S automated tissue processor (Leica Biosystems, Buffalo Grove, Ill.) using a standard overnight processing protocol and embedded into paraffin blocks. Tissue was sectioned at 5 μm and stained with rabbit anti-CD31 antibody. Sections were deparaffinized, rehydrated, and stained on BOND″ RX automated stainer (Leica Biosystems, Buffalo Grove, Ill.) using a preset protocol. In brief, sections were subjected to EDTA-based antigen retrieval with BOND™ ER2 solution (Leica Biosystems, Buffalo Grove, Ill.) for 20 minutes at 100° C. Endogenous peroxidase activity and non-specific binding was blocked by treating samples with peroxidase block and protein block with Background Sniper (Biocare Medical, Pacheco, Calif.) for 15 minutes and 30 minutes at room temperature, respectively. Sections were then incubated with the primary antibody diluted at 1:200 for 30 minutes at room temperature. BOND™ Polymer Refine Detection kit (Leica Biosystems, Buffalo Grove, Ill.) was used for detection. […]
as §1

## CCCCCCCCCCCCCC(=O)N[C@@H](CCCCN)C(=O)N[C@H](C(=O)N[C@@H](CO)C(=O)N[C@@H](C)C(=O)N[C@@H](CO)C(=O)N[C@@H](CC(C)C)C(=O)N[C@@H](CCSC)C(=O)O)[C@@H](C)CC [Myr-CBD7, myr-KISASLM] (Myristoyl-KISASLM-OH)
[1]
  NO production in wounds: significantly elevated
[2]
  microvessel density (CD31 staining): enhanced

From US20220265759A1, “COMPOSITION AND METHOD FOR PROMOTING WOUND HEALING” (THE BOARD OF TRUSTEES OF THE UNIVERSITY OF ILLIOIS, priority 2019, published 2022)
